Reference: US20190307783A1, “USE OF ANTIVIRALS TO INHIBIT PROTOZOAN VIRUSES” (priority 2016, published 2019)
Read-outs that look alike come from different tables or passages of the source.

Legend:
L. guyanensis (LgyLRV1+) = experiment: Drug-inhibition test: growth of LgyLRV1+ parasites; type: cell-based, Leishmania guyanensis; conditions: for Effect on L. guyanensis growth, in words: screen at 100 μM or maximum concentration permitted by solubility, 2 days
Experimental: These compounds were examined for their ability to inhibit the growth of LgyLRV1^+ and virus levels by LRV1 capsid flow cytometry.
Most studies were performed using luciferase-expressing transfectants of L. guyanensis (MHOM/BR/78/M4147) described previously [LRV1^+ LgyM4147/SSU:IR2SAT-LUC(b)c3 and LRV^−LgyM4147/pX63HYG/SSU:IR2SAT-LUC(b)c4] (54); these lines are termed LgyLRV1^+ and LgyLRV1^−, respectively. Two strains of LRV1^+L. braziliensis were examined: LEM2780 (MHOM/BO/90/CS) and LEM3874 (MHOM/BO/99/IMT252 no. 3) (12). Parasites were grown in Schneider's media (Sigma Aldrich, St. Louis, Mo., USA) prepared according to the supplier's instructions with pH adjusted to 6.5 and supplemented with 0.76 mM hemin, 2 μg/mL biopterin, 50 U/mL penicillin, 50 μg/mL streptomycin, and 10% (vol/vol) heat-inactivated FBS. Cell concentrations were determined using a Coulter Counter ([…], Indianapolis, Ind., USA).
(§1) Parasites were inoculated at 2×10^5 cells/mL into Schneider's media lacking supplemental adenine.

[1] = tested on: LRV1 (LgyLRV1 capsid levels); experiment: microbe, parasite or virus in culture; conditions: for Inhibition of LRV1 levels, in words: concentrations up to 100 μM, data not shown; for Effect on LRV1 (capsid) levels, in words: screen at 100 μM or maximum concentration permitted by solubility
Excerpt: Because LRV1 (like most Totiviridae) is not shed from the cell (33, 34), we developed a flow cytometric assay to measure intracellular LRV1 capsid levels on a per cell basis. To detect LRV1 we used binding to a rabbit anti-LgyLRV1 capsid antiserum (35) followed by detection with Alexa Fluor488-conjugated goat anti-rabbit IgG.
as §1
For capsid flow cytometry, 10^7 cells were fixed at room temperature using 2% (wt/vol) paraformaldehyde (Thermo Fisher Scientific) in PBS for 2 minutes. They were then incubated in blocking buffer [10% (vol/vol) normal goat serum (Vector Laboratories, Burlingame, Calif., USA) and 0.2% TRITON X-100 in PBS] for 30 minutes at room temperature. Anti-LgyLRV1 capsid antibody (35) was added (1:20,000 dilution) and incubated at room temperature for 1 hour. After two washes with PBS, cells were resuspended in 200 μL PBS with Alexa Fluor488-labeled goat anti-rabbit IgG (Alexafluor, Invitrogen; 1:1,000; or Thermo Fisher Scientific; 1:2,000 dilution), and incubated 1 hour at room temperature. After two additional washes with PBS, cells were subjected to flow cytometry, gating for single cells using forward and side scatter and the data analyzed using […] software (BD Bioscience, San Jose, Calif., USA).

[2] = Leishmania guyanensis, 48 h, LgyLRV1+, tested at 10 μM, growth after 2 days, read-out: Percent control (density)
[3] = LgyLRV1+, tested at 10 μM, growth after 2 days
[4] = 48 h, read-out: Percent control (LRV1 capsid)
[5] = LgyLRV1+, tested at 10 μM, 2 days
[6] = Leishmania guyanensis, 48 h, LgyLRV1+, tested at 100 μM, growth after 2 days, read-out: Percent control (density)
[7] = LgyLRV1+, tested at 100 μM, growth after 2 days
[8] = LgyLRV1+, tested at 100 μM, 2 days
[9] = Leishmania guyanensis, 48 h, LgyLRV1+, tested at 40 μM, growth after 2 days, read-out: Percent control (density)
[10] = LgyLRV1+, tested at 40 μM, growth after 2 days
[11] = LgyLRV1+, tested at 40 μM, 2 days
[12] = LgyLRV1+, tested at 50 μM, growth after 2 days
[13] = LgyLRV1+, tested at 50 μM, 2 days
[14] = Leishmania guyanensis, 48 h, read-out: Percent control (density)

CCCC(=O)O[C@H]1CN2CC[C@H](O)[C@@H]2[C@@H](O)[C@@H]1O [Celgosivir, 6-O-butanoyl castanospermine]
activity at 10 µM (L. guyanensis (LgyLRV1+); [2]): 65%
Density (cells/mL) (L. guyanensis (LgyLRV1+); [3]): 1.09E+7 cells/mL
activity at 10 µM [1, 4]: 47%
LRV1 capsid (geometric mean FU) [1, 5]: 124 FU

Nc1ccn([C@@H]2CS[C@H](CO)O2)c(=O)n1 [Lamivudine]
activity at 100 µM (L. guyanensis (LgyLRV1+); [6]): 55%
Density (cells/mL) (L. guyanensis (LgyLRV1+); [7]): 9.20E+6 cells/mL

Nc1ccn([C@@H]2O[C@H](CO)[C@@H](O)[C@H]2F)c(=O)n1 [2′-Fluoro-2′-deoxycytidine]
activity at 100 µM (L. guyanensis (LgyLRV1+); [6]): 132%
Density (cells/mL) (L. guyanensis (LgyLRV1+); [7]): 2.21E+7 cells/mL
activity at 100 µM [1, 4]: 87%
LRV1 capsid (geometric mean FU) [1, 8]: 230 FU

NC(=O)c1nc(F)c[nH]c1=O [Compound T-705, Favipiravir]
activity at 100 µM (L. guyanensis (LgyLRV1+); [6]): 67%
Density (cells/mL) (L. guyanensis (LgyLRV1+); [7]): 1.13E+7 cells/mL
activity at 100 µM [1, 4]: 60%
LRV1 capsid (geometric mean FU) [1, 8]: 161 FU

O=c1[nH]cnc2c([C@@H]3N[C@H](CO)[C@@H](O)[C@H]3O)c[nH]c12 [Immucillin H]
Inhibition of LRV1 levels, in words [1]: no inhibition of LRV1 levels

Nc1ncnc2c1ncn2[C@@H]1O[C@H](CO)[C@@H](O)[C@H]1F [2′-Fluoro-2′-deoxyadenosine]
activity at 100 µM (L. guyanensis (LgyLRV1+); [6]): 123%
Density (cells/mL) (L. guyanensis (LgyLRV1+); [7]): 2.07E+7 cells/mL
activity at 100 µM [1, 4]: 97%
LRV1 capsid (geometric mean FU) [1, 8]: 257 FU

Nc1nc(O)c2ncn(COC(CO)CO)c2n1 [Ganciclovir]
activity at 40 µM (L. guyanensis (LgyLRV1+); [9]): 58%
Density (cells/mL) (L. guyanensis (LgyLRV1+); [10]): 9.78E+6 cells/mL
activity at 40 µM [1, 4]: 75%
LRV1 capsid (geometric mean FU) [1, 11]: 198 FU

C[C@@]1(O)[C@H](O)[C@@H](CO)O[C@H]1n1ccc(N)nc1=O [2′C-Methylcytidine, 2′C-Methyl cytidine]
Density (cells/mL) (L. guyanensis (LgyLRV1+); [7]): 1.73E+7 cells/mL
Percent control (density) (L. guyanensis (LgyLRV1+); [7]): 103 Percent control
Effect on L. guyanensis growth, in words (L. guyanensis (LgyLRV1+)): little effect
LRV1 capsid (geometric mean FU) [1, 8]: 162 FU
Percent control (LRV1 capsid) [1, 8]: 61 Percent control
Effect on LRV1 (capsid) levels, in words ([1]; 2 days): little effect

Oc1ncnc2[nH]ncc12 [Allopurinol]
activity at 100 µM (L. guyanensis (LgyLRV1+); [6]): 2%
Density (cells/mL) (L. guyanensis (LgyLRV1+); [7]): 4.06E+5 cells/mL
Inhibition of L. guyanensis growth (L. guyanensis (LgyLRV1+); highest concentration tested, 48-hour propagation, growth rate (FIG. 18A)): 30%
activity at 100 µM [1, 4]: 34%
LRV1 capsid (geometric mean FU) [1, 8]: 90 FU
Inhibition of LRV1 capsid levels ([1]; highest concentration tested, 48-hour propagation (FIG. 18A)): 60%

3′-Hydroxyethyl cyclobutyl adenine
Density (cells/mL) (L. guyanensis (LgyLRV1+); [7]): 1.82E+7 cells/mL
Percent control (density) (L. guyanensis (LgyLRV1+); [7]): 108 Percent control
LRV1 capsid (geometric mean FU) [1, 8]: 290 FU
Percent control (LRV1 capsid) [1, 8]: 109 Percent control

Nc1ccn(C[C@@H](CO)OCP(=O)(O)O)c(=O)n1 [Cidofovir]
activity at 40 µM (L. guyanensis (LgyLRV1+); [9]): 59%
Density (cells/mL) (L. guyanensis (LgyLRV1+); [10]): 9.99E+6 cells/mL
activity at 40 µM [1, 4]: 240%
LRV1 capsid (geometric mean FU) [1, 11]: 637 FU

CCOC(=O)[C@H]1O[C@@H]1C(=O)N[C@@H](CC(C)C)C(=O)NCCC(C)C [e64d, E64-d]
activity at 10 µM (L. guyanensis (LgyLRV1+); [2]): 90%
Density (cells/mL) (L. guyanensis (LgyLRV1+); [3]): 1.52E+07 cells/mL
activity at 10 µM [1, 4]: 37%
LRV1 capsid (geometric mean FU) [1, 5]: 97 FU

[H]/N=C(/N)NS(=O)(=O)c1ccc(N)cc1 [Sulfaguanidine]
activity at 100 µM (L. guyanensis (LgyLRV1+); [6]): 68%
Density (cells/mL) (L. guyanensis (LgyLRV1+); [7]): 1.15E+7 cells/mL
activity at 100 µM [1, 4]: 98%
LRV1 capsid (geometric mean FU) [1, 8]: 260 FU

[N-]=[N+]=N[C@]1(CO)O[C@@H](n2ccc(N)nc2=O)[C@H](O)[C@@H]1O [Compound R-1479, 4′-Azido cytidine]
activity at 100 µM (L. guyanensis (LgyLRV1+); [6]): 73%
Density (cells/mL) (L. guyanensis (LgyLRV1+); [7]): 1.23E+7 cells/mL
activity at 100 µM [1, 4]: 43%
LRV1 capsid (geometric mean FU) [1, 8]: 114 FU

C#C[C@@]1(O)[C@H](O)[C@@H](CO)O[C@H]1n1ccc2c(N)ncnc21 [NITD008, 7-(2-Ethynyl-β-D-ribofuranosyl)-7H-pyrrolo[2,3-d]pyrimidine-4-amine]
activity at 1 µM (L. guyanensis (LgyLRV1+); Leishmania guyanensis, 48 h, LgyLRV1+, tested at 1 μM, growth after 2 days, read-out: Percent control (density)): 61%
Density (cells/mL) (L. guyanensis (LgyLRV1+); LgyLRV1+, tested at 1 μM, growth after 2 days): 1.02E+7 cells/mL
activity at 1 µM [1, 4]: 37%
LRV1 capsid (geometric mean FU) ([1]; LgyLRV1+, tested at 1 μM, 2 days): 98 FU
Effect on LRV1 (capsid) levels, in words ([1]; 2 days): little effect on LRV1

CCCNC(=O)[C@H]1O[C@@H]1C(=O)N[C@H](C(=O)N1CCC[C@H]1C(=O)OC)[C@@H](C)CC [CA-074-Me, CA-074 Me]
Density (cells/mL) (L. guyanensis (LgyLRV1+); [12]): 1.00E+07 cells/mL
Percent control (density) (L. guyanensis (LgyLRV1+); [12]): 60 Percent control
Effect on L. guyanensis growth, in words (L. guyanensis (LgyLRV1+)): no effects
LRV1 capsid (geometric mean FU) [1, 13]: 83 FU
Percent control (LRV1 capsid) [1, 13]: 31 Percent control
Effect on LRV1 (capsid) levels, in words ([1]; 2 days): only minimal effects

O=c1[nH]cnc2c1ncn2[C@H]1CC[C@@H](CO)O1 [Didanosine]
activity at 100 µM (L. guyanensis (LgyLRV1+); [14]): 107%
Density (cells/mL) (L. guyanensis (LgyLRV1+); [7]): 1.80E+7 cells/mL
activity at 100 µM [1, 4]: 68%
LRV1 capsid (geometric mean FU) [1, 8]: 182 FU

O=c1[nH]cnc2c(CN3C[C@H](CO)[C@@H](O)C3)c[nH]c12 [DADMe-Immucillin H]
Inhibition of LRV1 levels, in words [1]: no inhibition of LRV1 levels

O=c1nc[nH]c(=O)[nH]1 [Compound 5-Azauracil, 5-Azauracil]
Density (cells/mL) (L. guyanensis (LgyLRV1+)): 1.13E+7 cells/mL
activity at 100 µM (L. guyanensis (LgyLRV1+); [14]): 67%
LRV1 capsid (geometric mean FU) [1]: 252 FU
activity at 100 µM [1, 4]: 95%

C[C@@]1(O)[C@H](O)[C@@H](CO)O[C@H]1n1cnc2c(=O)[nH]c(N)nc21 [2′C-Methyguanosine, 2′C-Methyl guanosine]
Density (cells/mL) (L. guyanensis (LgyLRV1+); [7]): 2.25E+7 cells/mL
Percent control (density) (L. guyanensis (LgyLRV1+); [7]): 133 Percent control
Effect on L. guyanensis growth, in words (L. guyanensis (LgyLRV1+)): little effect
LRV1 capsid (geometric mean FU) [1, 8]: 252 FU
Percent control (LRV1 capsid) [1, 8]: 95 Percent control
Effect on LRV1 (capsid) levels, in words ([1]; 2 days): little effect

C[C@H]1O[C@@H](n2cc(F)c(=O)[nH]c2=O)[C@H](O)[C@@H]1O [5-Fluoro-5′-deoxyuridine]
activity at 100 µM (L. guyanensis (LgyLRV1+); [6]): 28%
Density (cells/mL) (L. guyanensis (LgyLRV1+); [7]): 4.71E+6 cells/mL
activity at 100 µM [1, 4]: 88%
LRV1 capsid (geometric mean FU) [1, 8]: 234 FU

Nc1ncnc2c(C3N[C@H](CO)[C@@H](O)[C@H]3O)c[nH]c12 (some centres unmarked) [Immucillin A]
Inhibition of LRV1 levels, in words [1]: no inhibition of LRV1 levels

O=c1[nH]cnc2nn[nH]c12 [8-Azahypoxanthine]
activity at 100 µM (L. guyanensis (LgyLRV1+); [6]): 77%
Density (cells/mL) (L. guyanensis (LgyLRV1+); [7]): 1.29E+7 cells/mL
activity at 100 µM [1, 4]: 95%
LRV1 capsid (geometric mean FU) [1, 8]: 251 FU

Nc1ncnc2nc[nH]c12 [adenine]
Effect of exogenous adenine on LRV1 levels, in words ([1]; adenine up to 400 μM, LgyLRV1+): nor did it alter LRV1 levels

Nc1ncnc2c(CN3C[C@H](CO)[C@@H](O)C3)c[nH]c12 [DADMe-Immucillin A]
Inhibition of LRV1 levels, in words [1]: no inhibition of LRV1 levels
